The record followed here is patent US11725036B2, “Modified lipidated relaxin B chain peptides and their therapeutic use” (Sanofi, priority 2018, dated 2023).

Values after ≈ are worked out from the molar mass of the structure shown. Where two headings read alike, the source gives them in different places. Starred links: 1 amine or outer side, 2 acyl side, 3 side chain; linkers in the order of their positions; H or OH if unused. Non-standard residues stand in square brackets, D forms with d. Residues, ends and D or L forms follow the SMILES beside them. Groups on a side chain read outwards from the residue. *: point of attachment. X3 = CCCCCCCCCCCCCCCCCC(=O)N[C@@H](CCC(=O)N[C@@H](CCC(=O)N[C@@H](CCC(=O)NCCCOCCOCCOCCCNC(=O)CCC(=O)NCCCOCCOCCOCCCNC(=O)CCC(=O)NCCCOCCOCCOCCCN*)C(=O)O)C(=O)O)C(=O)O; X1 = CCCCCCCCCCCCCCCC(=O)N[C@@H](CCC(=O)N[C@@H](CCC(=O)N[C@@H](CCC(=O)NCCCOCCOCCOCCCNC(=O)CCC(=O)NCCCOCCOCCOCCCNC(=O)CCC(=O)NCCCOCCOCCOCCCN*)C(=O)O)C(=O)O)C(=O)O; Suc = O=C(CCC(=O)[*:2])[*:1]; Aib = CC(C)(N)C(=O)O

One data set has as its target T1, RXFP1 (Homo sapiens, UniProt Q9HBX9).
T1 construct: OVCAR5 cells expressing endogenous RXFP1; endogenous in cells; host or cells: OVCAR5
T1 sequence (Q9HBX9 1-757): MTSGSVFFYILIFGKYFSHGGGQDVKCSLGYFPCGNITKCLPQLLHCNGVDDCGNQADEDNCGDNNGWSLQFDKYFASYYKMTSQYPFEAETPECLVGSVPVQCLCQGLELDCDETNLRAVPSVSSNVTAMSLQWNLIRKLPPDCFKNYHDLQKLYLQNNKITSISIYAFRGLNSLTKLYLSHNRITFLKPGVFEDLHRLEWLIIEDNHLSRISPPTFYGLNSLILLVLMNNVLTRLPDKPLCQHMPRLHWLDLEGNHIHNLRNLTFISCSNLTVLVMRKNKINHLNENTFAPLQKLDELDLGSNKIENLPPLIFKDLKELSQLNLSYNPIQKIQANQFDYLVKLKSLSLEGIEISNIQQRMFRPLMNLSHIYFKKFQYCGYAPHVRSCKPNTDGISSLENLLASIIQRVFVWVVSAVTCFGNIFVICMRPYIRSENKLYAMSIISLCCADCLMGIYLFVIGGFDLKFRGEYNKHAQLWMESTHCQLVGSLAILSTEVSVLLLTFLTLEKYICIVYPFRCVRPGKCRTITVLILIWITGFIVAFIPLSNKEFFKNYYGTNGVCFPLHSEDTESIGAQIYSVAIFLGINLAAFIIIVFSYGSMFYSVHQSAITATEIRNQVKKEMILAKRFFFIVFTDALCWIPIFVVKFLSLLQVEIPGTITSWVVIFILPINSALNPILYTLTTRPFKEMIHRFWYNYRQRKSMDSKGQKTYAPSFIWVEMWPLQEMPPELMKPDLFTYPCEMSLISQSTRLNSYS
Nature of the data set: OVCAR5 cAMP assay (HTRF). It counts as cell-based. The settings on record: for EC50: OVCAR 5 cells expressing endogenous RXFP1, cAMP readout; for Emax: OVCAR 5 cells, maximal cAMP relative to H2-relaxin. In outline: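 Endogenous RXFP1 in OVCAR5 cells, pretreated 40 min at 37° C with 1 mM IBMX, then exposed to increasing peptide concentrations in serum-free medium for 30 min at 37° C. cAMP read by HTRF; EC50 by variable-slope sigmoidal fit, Emax as % of H2-relaxin maximal cAMP in same run.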
(In general: Changes in cAMP serve as a functional read-out for many G protein-coupled receptors.)

Data set [1] in a line: Solubility testing in buffer. The settings on record: target solubility 10.0 mg/ml. The format is physicochemical.
The nature of another data set: Stability in rat plasma. It counts as in vitro ADME. The note with it: for Rat plasma stability % remaining: T = 0, 37° C., 5 μM; for remaining at 1 h, 5 μM: rat, plasma (sodium or lithium heparin), 37° C. As to the method:
(§1) Prior to the testing of stability in plasma (or blood) of a peptide batch, its purity (HPLC-UV) was determined.
(§2) Rat and Human plasma: anti-coagulant sodium or lithium heparin.
(§3) 100 μM solution of study compound in 50 mM phosphate buffer pH 7.4.
(§4) 950 μL plasma (or blood) was pre-incubated for 5 min at 37° C. 50 μL of compound stock solution was added. Final compound concentration=5 μM. Vortex and transfer 150 μL plasma (or blood) into an Eppendorf for each time point. The time points […] were carried out in duplicate for each species.
(§5) After incubation, 150 μL plasma (or blood) was extracted with 600 μL Acetonitrile containing 1% TFA. Said mixture was then vortexed and centrifuged 10 min at 14600 rpm. 200 μL supernatant was dried under N2. Sample was then reconstituted in 200 μL of H2O/CH3CN 98/2+0.1% FA+50 ng/ml Labetalol and analyzed using the analytical system used in solubility and stability studies.
(§6) For determination of the amount of the remaining peptide, the peak areas of the target compound at t0 and each time point […] were compared, resulting in “% remaining peptide”, following the equation: % remaining peptide=[(peak area peptide time)×100]/peak area peptide t0. The stability was expressed as “% remaining peptide”.

The nature of data set [2]: Stability in human plasma. The format is in vitro ADME. The note with it: for Human Plasma stability % remaining: T = 0, 37° C., 5 μM; for remaining at 1 h, 5 μM / remaining at 4 h, 5 μM: human, plasma (sodium or lithium heparin), 37° C. As to the method: as §1, §2, §3, §4, §5, §6
A further data set can be described thus: in vivo. More on the design: species or system Sprague Dawley rats. The note with it: Sprague Dawley, rat. As to the method:
Prior to the testing of a peptide batch, its purity (HPLC-UV) was determined. Dose was corrected for presence of salts, solvent and purity. Bioanalytical screening method for quantification of peptides in rat: Sprague Dawley rats were dosed with study peptide at a dose of 1 mg/kg intravenously (i.v.) or 3 mg/kg subcutaneously (s.c.) as a solution in PBS (0.2 mg/ml and 0.6 mg/ml respectively). Blood samples were collected after: 0.083, 0.25, 0.5, 1, 2, 4, 8, 24, 48 and 72 h (i.v. route) and 0.25, 0.5, 1, 2, 4, 6, 8, 10, 24, 48 and 72 h (s.c route) post application. Plasma samples were analyzed after protein precipitation via liquid chromatography mass spectrometry (LC/MS). PK parameters and half-life were calculated using Phoenix 64 (WinNonlin 6.4)-Pharsight (Certara™) (non-compartment model). Values below the limit of quantification (BLQ) were replaced by zero for subsequent calculations and PK analysis. T½: in-vivo half-life, time required for test compound plasma concentration to be divided by two during the PK experiment. C0: Extrapolated test compound plasma concentration at t=0 time point (i.v. route). Cmax: maximal test compound plasma concentration at the indicated time point (s.c. route). Tmax: Time point where Cmax was attained. F %: s.c. vs i.v. bioavailability, dose-corrected area under curve (AUC) s.c. route divided by AUC i.v.

The mark [3] stands for this setting: phosphate buffer 50 mM pH 7.4, read-out: Solubility phosphate buffer pH 7.4.

At RXFP1, `CCCCCCCCCCCCCCCC(=O)N[C@@H](CCC(=O)N[C@@H](CCC(=O)N[C@@H](CCC(=O)NCCCOCCOCCOCCCNC(=O)CCC(=O)NCCCOCCOCCOCCCNC(=O)CCC(=O)NCCCOCCOCCOCCCNC(=O)CCC(=O)NCCCC[C@H](NC(=O)CNC(=O)[C@H](CCC(=O)O)NC(=O)C(C)(C)NC(=O)C(C)(C)NC(=O)[C@@H](NC(=O)[C@H](CCCCNC(C)=O)NC(=O)[C@H](C)NC(=O)[C@H](CCCNC(=N)N)NC(=O)[C@@H](NC(=O)[C@H](CCCCN)NC(=O)[C@H](CCC(=O)O)NC(=O)[C@H](CCCNC(=N)N)NC(=O)CNC(=O)[C@H](CCC(=O)O)NC(=O)[C@H](CC(C)C)NC(C)=O)C(C)C)[C@@H](C)CC)C(=O)N[C@@H](CO)C(=O)N[C@H](C(=O)N[C@@H](Cc1ccccc1)C(=O)N[C@@H](CO)C(=O)N[C@@H](CCCCN)C(=O)N[C@@H](CCCNC(=N)N)C(=O)N[C@@H](C)C(=O)N[C@@H](CCCCNC(C)=O)C(N)=O)[C@@H](C)O)C(=O)O)C(=O)O)C(=O)O` [compound 13] (Ac-LEGREKVRAK(Ac)I[Aib][Aib]EGK([Suc-X1])STFSKRAK(Ac)-NH2) came in with an EC50 of 2.12 nM and an Emax of 91%. In addition, in data set [1] (setting [3]), the solubility came out at 7680 µg/mL (≈ 1770 µM). In the data set “Stability in rat plasma”, the “Rat plasma stability % remaining” value is recorded as 89% and the fraction remaining at 1 h, 5 μM came out at 100%. In data set [2], the “Human Plasma stability % remaining” value was determined as 100%; the fraction remaining at 1 h, 5 μM was determined as 91%; the fraction remaining at 4 h, 5 μM was determined as 89%.

In the case of `CCCCCCCCCCCCCCCCCC(=O)N[C@@H](CCC(=O)N[C@@H](CCC(=O)N[C@@H](CCC(=O)NCCCOCCOCCOCCCNC(=O)CCC(=O)NCCCOCCOCCOCCCNC(=O)CCC(=O)NCCCOCCOCCOCCCNC(=O)CCC(=O)NCCCC[C@H](NC(=O)CNC(=O)[C@H](CCC(=O)O)NC(=O)C(C)(C)NC(=O)C(C)(C)NC(=O)[C@@H](NC(=O)[C@H](CCCCNC(C)=O)NC(=O)[C@H](C)NC(=O)[C@H](CCCNC(=N)N)NC(=O)[C@@H](NC(=O)[C@H](CCCCN)NC(=O)[C@H](CCC(=O)O)NC(=O)[C@H](CCCNC(=N)N)NC(=O)CNC(=O)[C@H](CCC(=O)O)NC(=O)[C@H](CC(C)C)NC(C)=O)C(C)C)[C@@H](C)CC)C(=O)N[C@@H](CO)C(=O)N[C@H](C(=O)N[C@@H](Cc1c[nH]c2ccccc12)C(=O)N[C@@H](CO)C(=O)NC(C)(C)C(=O)N[C@@H](CCCNC(=N)N)C(=O)N[C@@H](CCCCN)C(=O)N[C@@H](CCCCNC(C)=O)C(N)=O)[C@@H](C)O)C(=O)O)C(=O)O)C(=O)O` [compound 20] (Ac-LEGREKVRAK(Ac)I[Aib][Aib]EGK([Suc-X3])STWS[Aib]RKK(Ac)-NH2), at RXFP1, the EC50 turned out to be 0.15 nM and the Emax turned out to be 96%. Besides, the solubility in data set [1] (acetate buffer 50 mM pH 4.5, read-out: Solubility Acetate buffer pH 4.5) came out at 9340 µg/mL (≈ 2110 µM). The solubility in data set [1] (setting [3]) worked out at 9950 µg/mL (≈ 2250 µM). In addition, in “in vivo” (iv, 1 mg/kg), the C0 turned out to be 3090 nM and the “T½ (h), in-vivo half-life” value is reported as 5.13 h. The same compound yielded a bioavailability in “in vivo” (sc) of 80%. Besides, in the data set “in vivo” (sc, 3 mg/kg), the Cmax came to 1990 nM and the Tmax was determined as 10 h. For the same compound, in the data set “Stability in rat plasma”, the “Rat plasma stability % remaining” value came out at 100% and the share remaining at 1 h, 5 μM was found to be 100%. Moreover, in data set [2], the “Human Plasma stability % remaining” value worked out at 87%; the share remaining at 1 h, 5 μM came to 100%; the share remaining at 4 h, 5 μM was 83%.

What is called EC50 is the concentration at which the effect is half-maximal. The low end stands for an effect from little substance, the high end for a need for much substance. Usually Emax stands for the maximal effect, on the per cent scale that the assay sets. As usually defined, the solubility is the dissolved amount per volume that the medium holds. What is called amount remaining is what is left of the initial amount, in per cent. Usually bioavailability stands for dose-corrected exposure relative to a reference, in per cent. Read a high bioavailability as much systemic uptake. Broadly, the Cmax is the highest concentration seen after dosing. As a reminder, the Tmax is the time from dosing to the highest level.
